Patent US9605004B2, “Chemical compounds” (SYNGENTA LIMITED, priority 2013, dated 2017)

Legend:
[1] = system: a variety of test species; assay: Pre-emergence herbicidal activity (Example 8a, Table 2); type: in vivo; parameters: key: 0 = no damage to plant, 5 = total damage to plant; details: application pre-emergence, rate 1000 g/ha, evaluated after 13 days
In short: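 Compounds are applied pre-emergence as an aqueous spray, formulated in 50:50 acetone/water containing 0.5% Tween 20, to pots sown one day earlier. Plants grow in a controlled glasshouse and are scored 13 days later for damage from 0 to 5.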

[2] = system: a variety of test species; assay: Post-emergence herbicidal activity (Example 8b, Table 3); type: in vivo; details: application post-emergence, rate 1000 g/ha, evaluated after 13 days, scale 0-5; for Herbicidal damage score, ABUTH: Abutilon theophrasti; for Herbicidal damage score, ALOMY: Alopecurus myosuroides; for Herbicidal damage score, AMARE: Amaranthus retroflexus; for Herbicidal damage score, ECHCG: Echinochloa crus-galli; for Herbicidal damage score, SETFA: Setaria faberi; for Herbicidal damage score, ZEAMX: Zea mays
In short: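 Damage rating 0 (none) to 5 (total), assessed 13 days after spraying. Plants received the compound in acetone/water 50:50 with 0.5% Tween 20 at 8 days post-sowing, then were kept at 24/16 °C, 14 h photoperiod, 65% RH.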

SMILES | Pre-emergence herbicidal activity, damage score ABUTH [1] | Pre-emergence herbicidal activity, damage score ALOMY [1] | Pre-emergence herbicidal activity, damage score AMARE [1] | Pre-emergence herbicidal activity, damage score ECHCG [1] | Pre-emergence herbicidal activity, damage score SETFA [1] | Pre-emergence herbicidal activity, damage score ZEAMX [1] | Herbicidal damage score, ABUTH [2] | Herbicidal damage score, ALOMY [2] | Herbicidal damage score, AMARE [2] | Herbicidal damage score, ECHCG [2] | Herbicidal damage score, SETFA [2] | Herbicidal damage score, ZEAMX [2]
CC1=C(Cl)C(=O)N(c2nn(C)c(C(C)(C)C)c2C#N)C1O (stereo not drawn) [Compound D1] | 5 | 4 | 5 | 4 | 4 | 2 | 5 | 4 | 5 | 5 | 5 | 3
CC1=C(Cl)C(=O)N(c2nn(C)c(C(C)(C)C)c2C#N)C1O (stereo not drawn) [Compound D2] | 5 | 4 | 5 | 4 | 4 | 2 | 5 | 4 | 5 | 5 | 5 | 3
CC1=C(Cl)C(=O)N(c2nn(C)c(C(C)(C)C)c2Cl)C1O (stereo not drawn) [Compound D3] | 5 | 3 | 5 | 5 | 5 | 4 | 5 | 4 | 4 | 5 | 5 | 4
CC1=C(Cl)C(=O)N(c2nn(C)c(C(C)(C)CCl)c2Cl)C1O (stereo not drawn) [Compound D4] | 5 | 3 | 2 | 4 | 2 | 2 | 5 | 4 | 4 | 5 | 4 | 0
CSc1c(C#N)c(N2C(=O)C(Cl)=C(C)C2O)nn1C (stereo not drawn) [Compound D5] | 0 | 0 | 0 | 0 | 0 | 0 | 0 | 0 | 0 | 0 | 0 | 0
CCn1nc(N2C(=O)C(Cl)=C(C)C2O)c2c1C(C)(C)CC2 (stereo not drawn) [Compound E1] | 5 | 4 | 5 | 5 | 4 | 2 | 5 | 4 | 5 | 5 | 5 | 4
CCn1nc(N2C(=O)C(Cl)=C(C)C2O)c2c1C(C)(C)CC2 (stereo not drawn) [Compound E2] | 5 | 3 | 5 | 5 | 5 | 3 | 5 | 5 | 5 | 5 | 5 | 5
CC1=C(Cl)C(=O)N(c2nn(C)c3c2CCCCC3(C)C)C1O (stereo not drawn) [Compound E3] | 4 | 2 | 5 | 4 | 2 | 1 | 4 | 4 | 5 | 5 | 4 | 2
CC1=C(Cl)C(=O)N(c2nn(C)c3c2C2CCC3C2)C1O (stereo not drawn) [Compound E4] | 5 | 3 | 5 | 4 | 5 | 2 | 5 | 4 | 5 | 5 | 5 | 4
CC1=C(Cl)C(=O)N(c2nn(C)c3c2CCCC3(C)C)C1O (stereo not drawn) [Compound E5] | 5 | 3 | 5 | 5 | 5 | 2 | 5 | 5 | 5 | 5 | 5 | 4
CC1=C(Cl)C(=O)N(c2cc(C(C)(C)C)n(C)n2)C1OC(=O)OCC(C)C (stereo not drawn) [Compound F1] | 5 | 3 | 5 | 5 | 4 | 2 | 5 | 5 | 5 | 5 | 5 | 5
CC1=C(Cl)C(=O)N(c2cc(C(C)(C)C)n(C)n2)C1OC(=O)Oc1ccccc1 (stereo not drawn) [Compound F2] | 5 | 3 | 5 | 5 | 4 | 3 | 5 | 5 | 5 | 5 | 5 | 5
